Details: pH 6.5
Experimental: A tube was introduced intranasally after local anaesthesia with xylocaine, and gastric juice was collected. Thereafter one standardized meal was given 1 h before sampling of duodenal and distal jejunum juice and another the next morning before the collection of distal ileal juice. After centrifugation the gastric and intestinal juices were frozen in aliquots of 1 ml and stored at -20° C. Degradation method. The peptide or peptide analog (10 μl of 10 mM peptide in 0.9% aqueous NaCl) was added to 190 μl of undiluted juice at 370° C. Aliquots of 25 μl were withdrawn at intervals and mixed with 100 μl acetone to stop the reaction. After centrifugation for 10 min at 10,000 g, 10 μl of the supernatiant was analyzed by reversed phase HPLC. Determination of peptide degradation. Analysis was carried out in a Varian 5000 HPLC analyzer equipped with a UV-detector (220 nm). Column Bondapak TM C18 (3.9×300 mm), eluant MeOH/0.025M NH4 Ac (isocratic conditions), flow rate 1 ml/min. Protein and pH determination. Protein: Bio-Rad protein assay. pH: Orion model SA720; pH-paper Merck (Darmstadt), range 4.0-7.0.

- DDAVP degraded (to about 50%): about 50%
SMILES: NC(=O)CC[C@@H]1NC(=O)[C@H](Cc2ccccc2)NC(=O)[C@H](Cc2ccc(O)cc2)NC(=O)CCSSC[C@@H](C(=O)N2CCC[C@H]2C(=O)N[C@H](CCCN=C(N)N)C(=O)NCC(N)=O)NC(=O)[C@H](CC(N)=O)NC1=O [DDAVP, Mpa--Tyr--Phe--Gln--Asn--Cys--Pro--D--Arg--Gly--GlyNH2 (SEQ ID NO: 3)]

From patent publication US5763405A, “Stabilized composition for oral administration of peptides” (Ferring B.V., priority 1994, dated 1998)
